Laboratory results taken from US9878986B2, “Compounds for selective histone deacetylase inhibitors, and pharmaceutical composition comprising the same” (CHONG KUN DANG PHARMACEUTICAL CORP., priority 2013, dated 2018).
Values belong to the molecule of their own block, whether it stands above or below them.

Tests used:
RPMI 8226 cells = assay: Combination index for combination treatment with Velcade (MTT cell viability); type: cell-based
Experimental: RPMI 8226 cells were seeded in 96-well U-bottom plate at 3×10^5 cells/ml in 180 μl per well, and 20 μl of test material was added to the plate. The cells were incubated in a 37° C. humidified 5% CO2 incubator for 48 hours, and each 20 μl of 5 mg/ml 2-(4,5-dimethylthiazol-2-yl)-2,5-diphenyltetrazolium bromide (MTT) solution dissolved in PBS was added and incubated again for 4 hours. After the formation of formazan, the medium was completely removed, 200 μl of DMSO was added, and then the absorbance was measured using a microplate reader at 570 nm.
For the quantitative analysis of drug interaction between the novel urea compounds of the present invention and Velcade (BOZ) well known as a therapeutic agent for multiple myeloma, the combination index (CI) of cell fractions on cytotoxicity caused by the drugs was calculated based on the dose-response curve of single and combination treatments. For the analysis of the interaction between two drugs, the CI was measured using Compusyn software (Combosyn Inc.) according to the method of Chou and Talalay (CompuSyn by Ting-Chao Chou and Nick Martin, 2005). The CI is the dose ratio of two anticancer agents treated with the dose of two anticancers at the point representing the equivalent cytotoxic effects. CI<1, CI=1, and CI>1 are interpreted as synergism, additivity, and antagonism, respectively.

HDAC 9 = target: T1, HDAC 9 (Homo sapiens, UniProt Q9UKV0); assay: HDAC panel by Reaction Biology Corp., HDAC 9; type: biochemical; settings: read-out: HDAC inhibitory activities, HDAC 9
T1 construct: Reaction Biology Corp
Source text: (§1) The inhibitory activities of Compounds 255 and 374 on all HDACs were confirmed (by Reaction Biology Corp.).

colitis models = assay: Colitis models (dextran sulfate sodium); type: in vivo, C57BL/6J mice; settings: intraperitoneally twice a day after 8 days from supply of DSS; disease-induced models lost to 17.5 to 18 g
Experimental: 3.0% dextran sulfate sodium (DSS: MP biomedicals) was dissolved in deionized water and supplied to 9-week-old C57BL/6J mice for 5 to 7 days and then water was normally supplied to the mice to induce colitis in animal models. The experimental animals were classified into a solvent control group and each group treated with Compound 254 and Compound 255 as test materials based on the body weight of the experimental animals. The test material was intraperitoneally injected twice a day after 8 days from the supply of DSS. The evaluation of the efficacy in colitis models was made by determining the degree to which the weight, lost due to the disease, was recovered to normal level, and the results are shown in FIG. 6.

HDAC 5 = target: T2, HDAC 5 (Homo sapiens, UniProt Q9UQL6); assay: HDAC panel by Reaction Biology Corp., HDAC 5; type: biochemical; settings: read-out: HDAC inhibitory activities, HDAC 5
T2 construct: Reaction Biology Corp
Source text: as §1

[1] = Compound 255 0.25 μM + BOZ (Velcade) 2.5 nM
[2] = Compound 255 0.25 μM + BOZ (Velcade) 5.0 nM
[3] = Compound 255 0.25 μM + BOZ (Velcade) 10.0 nM
[4] = Compound 255 0.5 μM + BOZ (Velcade) 2.5 nM
[5] = Compound 255 0.5 μM + BOZ (Velcade) 5.0 nM
[6] = Compound 255 0.5 μM + BOZ (Velcade) 10.0 nM
[7] = Compound 255 1.0 μM + BOZ (Velcade) 2.5 nM
[8] = Compound 255 1.0 μM + BOZ (Velcade) 5.0 nM
[9] = Compound 255 1.0 μM + BOZ (Velcade) 10.0 nM

T1 sequence (Q9UKV0 whole entry): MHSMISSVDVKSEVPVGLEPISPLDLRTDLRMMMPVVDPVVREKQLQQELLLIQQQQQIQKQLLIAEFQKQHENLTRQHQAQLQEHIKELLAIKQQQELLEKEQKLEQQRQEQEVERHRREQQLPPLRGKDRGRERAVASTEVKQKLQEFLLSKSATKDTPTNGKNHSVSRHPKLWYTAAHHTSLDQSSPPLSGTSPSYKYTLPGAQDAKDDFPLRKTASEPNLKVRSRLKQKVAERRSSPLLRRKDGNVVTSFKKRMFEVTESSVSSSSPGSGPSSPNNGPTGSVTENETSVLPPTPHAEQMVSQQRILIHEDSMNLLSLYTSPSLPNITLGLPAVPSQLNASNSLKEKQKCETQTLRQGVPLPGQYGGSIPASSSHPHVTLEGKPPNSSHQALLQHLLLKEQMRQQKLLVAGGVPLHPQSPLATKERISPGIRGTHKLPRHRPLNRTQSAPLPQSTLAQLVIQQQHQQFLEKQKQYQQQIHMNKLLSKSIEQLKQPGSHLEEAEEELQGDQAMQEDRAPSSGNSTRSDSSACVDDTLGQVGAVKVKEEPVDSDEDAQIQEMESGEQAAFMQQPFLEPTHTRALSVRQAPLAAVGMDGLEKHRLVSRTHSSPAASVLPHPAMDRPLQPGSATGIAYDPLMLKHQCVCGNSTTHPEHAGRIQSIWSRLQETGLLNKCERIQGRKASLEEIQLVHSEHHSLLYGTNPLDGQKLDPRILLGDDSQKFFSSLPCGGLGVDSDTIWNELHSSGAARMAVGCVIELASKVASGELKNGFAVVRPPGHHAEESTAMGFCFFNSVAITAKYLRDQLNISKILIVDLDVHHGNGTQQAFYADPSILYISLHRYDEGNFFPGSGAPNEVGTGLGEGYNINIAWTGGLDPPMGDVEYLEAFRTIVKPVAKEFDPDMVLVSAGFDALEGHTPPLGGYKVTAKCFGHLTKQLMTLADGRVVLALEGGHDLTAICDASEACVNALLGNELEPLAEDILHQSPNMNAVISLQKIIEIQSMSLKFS
T2 sequence (Q9UQL6 whole entry): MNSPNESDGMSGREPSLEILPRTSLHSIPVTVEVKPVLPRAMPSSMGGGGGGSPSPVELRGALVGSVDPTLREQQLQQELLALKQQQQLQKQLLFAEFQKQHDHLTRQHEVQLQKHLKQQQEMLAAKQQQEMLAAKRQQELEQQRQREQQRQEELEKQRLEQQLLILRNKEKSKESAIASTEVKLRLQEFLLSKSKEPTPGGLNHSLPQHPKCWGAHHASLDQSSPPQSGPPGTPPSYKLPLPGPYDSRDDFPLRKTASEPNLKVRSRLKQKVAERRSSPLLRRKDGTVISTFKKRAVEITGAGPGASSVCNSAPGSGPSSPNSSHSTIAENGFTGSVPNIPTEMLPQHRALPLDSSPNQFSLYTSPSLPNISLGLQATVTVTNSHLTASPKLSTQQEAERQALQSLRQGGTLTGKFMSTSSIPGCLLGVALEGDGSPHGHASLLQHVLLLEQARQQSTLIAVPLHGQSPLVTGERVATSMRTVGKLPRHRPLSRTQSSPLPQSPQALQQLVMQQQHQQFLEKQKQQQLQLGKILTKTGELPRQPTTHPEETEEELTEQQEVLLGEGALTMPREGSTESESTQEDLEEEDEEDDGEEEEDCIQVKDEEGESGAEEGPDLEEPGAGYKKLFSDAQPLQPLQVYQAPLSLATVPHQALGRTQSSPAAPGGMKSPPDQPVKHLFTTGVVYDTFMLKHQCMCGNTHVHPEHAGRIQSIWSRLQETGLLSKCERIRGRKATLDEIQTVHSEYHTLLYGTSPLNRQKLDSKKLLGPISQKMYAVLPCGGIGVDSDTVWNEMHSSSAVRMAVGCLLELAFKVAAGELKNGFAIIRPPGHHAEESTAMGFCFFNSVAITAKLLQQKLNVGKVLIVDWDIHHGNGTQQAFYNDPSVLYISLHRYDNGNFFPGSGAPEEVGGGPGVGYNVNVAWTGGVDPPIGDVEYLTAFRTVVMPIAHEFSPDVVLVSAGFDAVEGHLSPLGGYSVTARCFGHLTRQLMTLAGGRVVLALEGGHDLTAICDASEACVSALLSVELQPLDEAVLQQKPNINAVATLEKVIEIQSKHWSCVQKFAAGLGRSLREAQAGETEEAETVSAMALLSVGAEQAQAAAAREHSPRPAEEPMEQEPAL

IC50 (HDAC 9): 3.52 µM | IC50 (HDAC 5): 8.27 µM
SMILES: O=C(NO)c1ccc(CN(C(=O)N2CCOCC2)c2cccc(Br)c2)cc1 [Compound 255, N-(3-bromophenyl)-N-(4-(hydroxycarbamoyl)benzyl)morpholine-4-carboxamide]
CI (1) (RPMI 8226 cells; [1]): 1.182 | CI (2) (RPMI 8226 cells; [1]): 1.034 | CI (3) (RPMI 8226 cells; [1]): 1.068 | CI (1) (RPMI 8226 cells; [2]): 0.560 | CI (2) (RPMI 8226 cells; [2]): 0.710 | CI (3) (RPMI 8226 cells; [2]): 0.737 | CI (1) (RPMI 8226 cells; [3]): 0.482 | CI (2) (RPMI 8226 cells; [3]): 0.309 | CI (3) (RPMI 8226 cells; [3]): 0.417 | CI (1) (RPMI 8226 cells; [4]): 1.120 | CI (2) (RPMI 8226 cells; [4]): 1.115 | CI (3) (RPMI 8226 cells; [4]): 1.087 | CI (1) (RPMI 8226 cells; [5]): 0.751 | CI (2) (RPMI 8226 cells; [5]): 0.789 | CI (3) (RPMI 8226 cells; [5]): 0.727 | CI (1) (RPMI 8226 cells; [6]): 0.491 | CI (2) (RPMI 8226 cells; [6]): 0.529 | CI (3) (RPMI 8226 cells; [6]): 0.428 | CI (1) (RPMI 8226 cells; [7]): 0.940 | CI (2) (RPMI 8226 cells; [7]): 1.146 | CI (3) (RPMI 8226 cells; [7]): 0.998 | CI (1) (RPMI 8226 cells; [8]): 0.469 | CI (2) (RPMI 8226 cells; [8]): 0.679 | CI (3) (RPMI 8226 cells; [8]): 0.475 | CI (1) (RPMI 8226 cells; [9]): 0.416 | CI (2) (RPMI 8226 cells; [9]): 0.518 | CI (3) (RPMI 8226 cells; [9]): 0.417 | combination effect with Velcade (BOZ) (RPMI 8226 cells; judged by the combination index): combination effect is excellent | weight recovered to (colitis models): 19 to 19.5 g

IC50 (HDAC 9): 10.3 µM
SMILES: O=C(NO)c1ccc(CN(C(=O)N2CCOCC2)c2cccc(C(F)(F)F)c2)cc1 [Compound 374, N-(4-(hydroxycarbamoyl)benzyl)-N-(3-(trifluoromethyl)phenyl)morpholine-4-carboxamide]
